Test results from patent US20230120597A1, “CO-AGONISTS AT GLP-1 AND GIP RECEPTORS SUITABLE FOR ORAL DELIVERY” (Novo Nordisk A/S, priority 2020, published 2023).
Read-outs that look alike come from different tables or passages of the source. Starred links: 1 amine or outer side, 2 acyl side, 3 side chain; linkers in the order of their positions; H or OH if unused. Non-standard residues stand in square brackets, D forms with d. Residues, ends and D or L forms follow the SMILES beside them. Groups on a side chain read outwards from the residue. *: point of attachment. C18 diacid = O=C(O)CCCCCCCCCCCCCCCCC(=O)*; γGlu = O=C(O)[C@H](CCC(=O)[*:2])N[*:1]; εLys = N[C@@H](CCCCN[*:1])C(=O)[*:2]; AEEA = NCCOCCOCC(=O)O; Aib = CC(C)(N)C(=O)O

Key:
[1] = molecular target: T1, human GLP-1 receptor (Homo sapiens, UniProt P43220); test: In vitro functional potency, CRE luciferase reporter gene assay, whole BHK cells expressing hGLP-1R; format: cell-based; conditions: BHK CRE luc2P hGLP-1R cells
T1 construct: expressed in transfected cells; host or cells: BHK (parent line BHKTS13), clone BHK CRE luc2P hGLP-1R
T1 sequence (P43220 24-463): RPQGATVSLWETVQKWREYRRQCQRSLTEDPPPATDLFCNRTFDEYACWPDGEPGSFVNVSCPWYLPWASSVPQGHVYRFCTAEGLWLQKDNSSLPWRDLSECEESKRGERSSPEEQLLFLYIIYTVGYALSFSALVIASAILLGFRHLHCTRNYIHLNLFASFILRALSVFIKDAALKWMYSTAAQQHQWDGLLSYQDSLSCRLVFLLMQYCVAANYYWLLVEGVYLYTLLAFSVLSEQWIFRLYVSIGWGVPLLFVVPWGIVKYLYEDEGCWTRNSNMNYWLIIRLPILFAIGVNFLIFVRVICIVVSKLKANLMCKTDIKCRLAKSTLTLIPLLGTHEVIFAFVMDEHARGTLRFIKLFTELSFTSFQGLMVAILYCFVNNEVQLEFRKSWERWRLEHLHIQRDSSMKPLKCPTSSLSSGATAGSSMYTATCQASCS
Procedure: (§1) The in vitro functional potency is the measure of target receptor activation in a whole cell assay.
(§2) In vitro functional potency was determined by measuring the response of the target receptor in a reporter gene assay in individual cell lines. […] When the respective receptor is activated, it results in the production of cAMP, which in turn results in expression of the luciferase protein. When assay incubation is completed, luciferase substrate (luciferin) is added resulting in the enzymatic conversion of luciferin to oxyluciferin and producing bioluminescence. The luminescence is measured as the readout for the assay.
(§3) The cells lines used in these assays were BHK cells with BHKTS13 as a parent cell line. The cell lines were derived from a clone containing the CRE luciferase element and were established by further transfection with the respective human receptor to obtain the relevant cell line: BHK CRE luc2P hGLP-1R or BHK CRE luc2P hGIPR. The cells were cultured at 37° C. with 5% CO2 in Cell Culture Medium. They were aliquoted and stored in liquid nitrogen. The cells were kept in continuous culture and were seeded out the day before each assay.
(§4) GLP-1R Cell Culture Medium consisted of DMEM medium with 10% FBS, 500 μg/mL G418, and 300 μg/mL hygromycin. GIPR Cell Culture Medium consisted of DMEM medium with 10% FBS, 400 μg/mL G418, and 300 μg/mL hygromycin. Assay Buffer consisted of DMEM w/o phenol red, 10 mM Hepes, 1× Glutamax. 1% ovalbumin, and 0.1% Pluronic F-68 with the addition of HSA at twice the final assay concentration.
(§5) Procedure • 1) Cells were plated at 5000 cells/well and incubated overnight in the assay plate. • 2) Cells were washed once in DPBS. • 3) Stocks of the test compounds and reference compounds in concentrations ranging from […] were diluted 1:150 in Assay Buffer. Compounds were then diluted 1:10 in column 1 of a 96 deep well dilution plate and then carried across the row creating a 3.5 fold, 12 point dilution curve. • 4) Assay Buffer (50 μl aliquot) with or without HSA was added to each well in the assay plate. • 5) A 50 μl aliquot of compound or blank was transferred from the dilution plate to the assay plate containing the Assay Buffer with or without HSA. • 6) The assay plate was incubated for 3 h in a 5% CO2 incubator at 37° C. • 7) The cells were washed once with DPBS. • 8) A 100 μl aliquot of DPBS was added to each well of the assay plate. • 9) A 100 μl aliquot of steadylite plus reagent (light sensitive) was added to each well of the assay plate. • 10) Each assay plate was covered with aluminum foil to protect it from light and shaken at 250 RPM for 30 min at room temperature. • 11) Each assay plate was read in a microtiter plate reader.
(§6) The data from the microtiter plate reader was first regressed in an Excel in order to calculate the x-axis, log scale concentrations based on the individual test compound's stock concentration and the dilutions of the assay. […] The software performs a non-linear regression (log(agonist) vs response). A minimum of two replicates was measured for each sample. The reported values are averages of the replicates.

[2] = molecular target: T2, human GIP receptor (Homo sapiens, UniProt P48546); test: In vitro functional potency, CRE luciferase reporter gene assay, whole BHK cells expressing hGIPR; format: cell-based; conditions: BHK CRE luc2P hGIPR cells
T2 construct: expressed in transfected cells; host or cells: BHK (parent line BHKTS13), clone BHK CRE luc2P hGIPR
T2 sequence (P48546 22-466): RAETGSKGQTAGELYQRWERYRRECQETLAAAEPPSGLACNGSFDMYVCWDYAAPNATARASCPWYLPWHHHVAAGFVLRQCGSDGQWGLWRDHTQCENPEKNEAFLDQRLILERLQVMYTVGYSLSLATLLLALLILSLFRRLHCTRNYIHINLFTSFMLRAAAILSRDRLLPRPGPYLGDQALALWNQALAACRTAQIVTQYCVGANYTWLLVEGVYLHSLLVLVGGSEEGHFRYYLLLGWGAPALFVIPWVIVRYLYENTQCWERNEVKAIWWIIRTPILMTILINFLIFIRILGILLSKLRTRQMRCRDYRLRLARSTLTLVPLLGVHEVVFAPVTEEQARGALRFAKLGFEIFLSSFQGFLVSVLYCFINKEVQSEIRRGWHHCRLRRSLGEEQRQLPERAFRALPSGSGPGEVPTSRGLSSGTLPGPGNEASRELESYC
Procedure: as §1, §2, §3, §4, §5, §6

[3] = 0% HSA, read-out: hGLP-1R, CRE Luc 0% HSA EC50
[4] = hGLP-1R, CRE Luc 1% HSA EC50, 1% HSA
[5] = 0% HSA, read-out: hGIPR, CRE Luc 0% HSA EC50
[6] = hGIPR, CRE Luc 1% HSA EC50, 1% HSA

Structure (SMILES)	EC50 [1, 3] [nM]	EC50 [1, 4] [nM]	EC50 [2, 5] [nM]	EC50 [2, 6] [nM]
CC[C@H](C)[C@H](NC(=O)[C@H](Cc1ccccc1)NC(=O)[C@H](CCC(=O)O)NC(=O)[C@H](CCCNC(=N)N)NC(=O)[C@H](C)NC(=O)[C@H](C)NC(=O)[C@H](CCC(N)=O)NC(=O)[C@H](CCCCNC(=O)[C@@H](N)CCCCNC(=O)[C@@H](N)CCCCNC(=O)CC[C@H](NC(=O)CCCCCCCCCCCCCCCCC(=O)O)C(=O)O)NC(=O)[C@H](CCC(=O)O)NC(=O)[C@H](CC(C)C)NC(=O)[C@H](Cc1ccc(O)cc1)NC(=O)[C@@H](NC(=O)[C@H](CO)NC(=O)[C@H](Cc1ccc(O)cc1)NC(=O)[C@H](CC(=O)O)NC(=O)[C@H](CO)NC(=O)[C@@H](NC(=O)[C@H](Cc1ccccc1)NC(=O)[C@@H](NC(=O)CNC(=O)[C@H](CCC(=O)O)NC(=O)C(C)(C)NC(=O)[C@@H](N)Cc1ccc(O)cc1)[C@@H](C)O)[C@@H](C)O)[C@@H](C)CC)C(=O)N[C@@H](CC(N)=O)C(=O)N[C@@H](Cc1c[nH]c2ccccc12)C(=O)N[C@@H](CC(C)C)C(=O)N[C@@H](CC(C)C)C(=O)N[C@@H](C)C(=O)NCC(=O)NCC(=O)N1CCC[C@H]1C(=O)N[C@@H](CO)C(=O)N[C@@H](CO)C(=O)NCC(=O)N[C@@H](C)C(=O)N1CCC[C@H]1C(=O)N1CCC[C@H]1C(=O)N1CCC[C@H]1C(=O)N[C@@H](CO)C(N)=O [Compound No. 8] (H-Y[Aib]EGTFTSDYSIYLEK([εLys-εLys-γGlu-C18 diacid])QAAREFINWLLAGGPSSGAPPPS-NH2)	0.0023	0.0821	0.0067	0.191
CC[C@H](C)[C@H](NC(=O)[C@H](CO)NC(=O)[C@H](Cc1ccc(O)cc1)NC(=O)[C@H](CC(=O)O)NC(=O)[C@H](CO)NC(=O)[C@@H](NC(=O)[C@H](Cc1ccccc1)NC(=O)[C@@H](NC(=O)CNC(=O)[C@H](CCC(=O)O)NC(=O)C(C)(C)NC(=O)[C@@H](N)Cc1ccc(O)cc1)[C@@H](C)O)[C@@H](C)O)C(=O)N[C@@H](Cc1ccc(O)cc1)C(=O)N[C@@H](CC(C)C)C(=O)N[C@@H](CCC(=O)O)C(=O)N[C@@H](CCCCNC(=O)COCCOCCNC(=O)COCCOCCNC(=O)CC[C@H](NC(=O)CCCCCCCCCCCCCCCCC(=O)O)C(=O)O)C(=O)N[C@@H](CCC(N)=O)C(=O)N[C@@H](C)C(=O)N[C@@H](C)C(=O)N[C@@H](CCCNC(=N)N)C(=O)N[C@@H](CCC(=O)O)C(=O)N[C@@H](Cc1ccccc1)C(=O)N[C@H](C(=O)N[C@@H](CC(N)=O)C(=O)N[C@@H](Cc1c[nH]c2ccccc12)C(=O)N[C@@H](CC(C)C)C(=O)N[C@@H](CC(C)C)C(=O)N[C@@H](C)C(=O)NCC(=O)NCC(=O)N1CCC[C@H]1C(=O)N[C@@H](CO)C(=O)N[C@@H](CO)C(=O)NCC(=O)N[C@@H](C)C(=O)N1CCC[C@H]1C(=O)N1CCC[C@H]1C(=O)N1CCC[C@H]1C(=O)N[C@@H](CO)C(N)=O)C(C)C [Compound No. 7] (H-Y[Aib]EGTFTSDYSIYLEK([AEEA-AEEA-γGlu-C18 diacid])QAAREFVNWLLAGGPSSGAPPPS-NH2)	0.0042	0.513	0.0287	0.687
CC(C)C[C@H](NC(=O)[C@H](CC(C)C)NC(=O)[C@H](Cc1c[nH]c2ccccc12)NC(=O)[C@H](CC(N)=O)NC(=O)[C@@H](NC(=O)[C@H](Cc1ccccc1)NC(=O)[C@H](C)NC(=O)[C@H](CCC(N)=O)NC(=O)[C@H](C)NC(=O)[C@H](C)NC(=O)[C@H](CCC(N)=O)NC(=O)[C@H](CCCCNC(=O)[C@@H](N)CCCCNC(=O)[C@@H](N)CCCCNC(=O)CC[C@H](NC(=O)CCCCCCCCCCCCCCCCC(=O)O)C(=O)O)NC(=O)[C@H](CCC(=O)O)NC(=O)[C@H](CC(C)C)NC(=O)[C@H](Cc1ccc(O)cc1)NC(=O)[C@H](Cc1ccc(O)cc1)NC(=O)[C@H](CO)NC(=O)[C@H](Cc1ccc(O)cc1)NC(=O)[C@H](CC(=O)O)NC(=O)[C@H](CO)NC(=O)[C@@H](NC(=O)[C@H](Cc1ccccc1)NC(=O)[C@@H](NC(=O)CNC(=O)[C@H](CCC(=O)O)NC(=O)C(C)(C)NC(=O)[C@@H](N)Cc1ccc(O)cc1)[C@@H](C)O)[C@@H](C)O)C(C)C)C(=O)N[C@@H](C)C(=O)NCC(=O)NCC(=O)N1CCC[C@H]1C(=O)N[C@@H](CO)C(=O)N[C@@H](CO)C(=O)NCC(=O)N[C@@H](C)C(=O)N1CCC[C@H]1C(=O)N1CCC[C@H]1C(=O)N1CCC[C@H]1C(=O)N[C@@H](CO)C(=O)O [Compound No. 5] (H-Y[Aib]EGTFTSDYSYYLEK([εLys-εLys-γGlu-C18 diacid])QAAQAFVNWLLAGGPSSGAPPPS-OH; N-terminus assumed)	0.0094	0.625	0.0142	0.362
CC[C@H](C)[C@H](NC(=O)[C@H](CO)NC(=O)[C@H](Cc1ccc(O)cc1)NC(=O)[C@H](CC(=O)O)NC(=O)[C@H](CO)NC(=O)[C@@H](NC(=O)[C@H](Cc1ccccc1)NC(=O)[C@@H](NC(=O)CNC(=O)[C@H](CCC(=O)O)NC(=O)C(C)(C)NC(=O)[C@@H](N)Cc1ccc(O)cc1)[C@@H](C)O)[C@@H](C)O)C(=O)N[C@@H](Cc1ccc(O)cc1)C(=O)N[C@@H](CC(C)C)C(=O)N[C@@H](CCC(=O)O)C(=O)N[C@@H](CCCCNC(=O)[C@@H](N)CCCCNC(=O)[C@@H](N)CCCCNC(=O)CC[C@H](NC(=O)CCCCCCCCCCCCCCCCC(=O)O)C(=O)O)C(=O)N[C@@H](CCC(N)=O)C(=O)N[C@@H](C)C(=O)N[C@@H](C)C(=O)N[C@@H](CCCNC(=N)N)C(=O)N[C@@H](CCC(=O)O)C(=O)N[C@@H](Cc1ccccc1)C(=O)N[C@H](C(=O)N[C@@H](CC(N)=O)C(=O)N[C@@H](Cc1c[nH]c2ccccc12)C(=O)N[C@@H](CC(C)C)C(=O)N[C@@H](CC(C)C)C(=O)N[C@@H](C)C(=O)NCC(=O)NCC(=O)N1CCC[C@H]1C(=O)N[C@@H](CO)C(=O)N[C@@H](CO)C(=O)NCC(=O)N[C@@H](C)C(=O)N1CCC[C@H]1C(=O)N1CCC[C@H]1C(=O)N1CCC[C@H]1C(=O)N[C@@H](CO)C(N)=O)C(C)C [Compound No. 6] (H-Y[Aib]EGTFTSDYSIYLEK([εLys-εLys-γGlu-C18 diacid])QAAREFVNWLLAGGPSSGAPPPS-NH2)	0.0034	0.243	0.0185	0.434
